Experimental data reported in paper PMC12731165, “Dual Modulation of Cardiac Ion Pumps: A Small-Molecule SERCA2a SUMOylation Enhancer Also Inhibits the Na^+/K^+-ATPase” (Biomedicines, 2025).

What was measured:
[1] = molecular target: T1, Na^+/K^+-ATPase (NKA), α1 isoform (Sus scrofa, UniProt P05024); assay: ouabain-sensitive ATPase activity, NADH-coupled assay at […] nm, […] °C; type: biochemical
T1 construct: gene ATP1A1; native enzyme purified from porcine kidney outer medulla (α/β heterodimer); with NKA β-subunit (α/β heterodimer)

[2] = molecular target: T1, Na^+/K^+-ATPase (NKA), α1 isoform; assay: ouabain-sensitive ATP hydrolysis ([…] ouabain), NADH-coupled assay; type: biochemical

Structure (SMILES)	IC50 [1] [µM]	ouabain-sensitive ATP hydrolysis (500 μM ouabain), NADH-coupled assay [2]
COc1ccc(-c2nnc(Nc3nc4c(OC)cccc4s3)o2)cc1 [N106, N-(4-methoxy-1,3-benzothiazol-2-yl)-5-(4-methoxyphenyl)-1,3,4-oxadiazol-2-amine]	7 ± 1	
C[C@@H]1O[C@@H](O[C@H]2C[C@@H](O)[C@]3(CO)[C@H]4[C@H](O)C[C@]5(C)[C@@H](C6=CC(=O)OC6)CC[C@]5(O)[C@@H]4CC[C@]3(O)C2)[C@H](O)[C@H](O)[C@H]1O [ouabain]		The enzymatic activity was verified through ouabain (OUA)-sensitive ATP hydrolysis assays prior to use in experiments.
